Here are results for 17 molecules from patent US8633315B2, “Substituted hydroxyethyl amine compounds as beta-secretase modulators and methods of use” (Amgen Inc., priority 2007, dated 2014).

In test [1] the test system is Cells stably expressing Amyloid Precursor Protein (APP). The test can be described thus: In vitro BACE cell-based assay (HEK cell assay): Aβ40 in conditioned medium by sandwich ELISA. The following applies: Aβ40 in conditioned medium after 24 h incubation. The procedure:
In Vitro BACE Cell-Based Assay:
The cell-based assay measures inhibition or reduction of Aβ40 in conditioned medium of test compound treated cells expressing amyloid precursor protein.
Cells stably expressing Amyloid Precursor Protein (APP) were plated at a density of 40K cells/well in 96 well plates (Costar). The cells were cultivated for 24 hours at 37° C. and 5% CO2 in DMEM supplemented with 10% FBS. The test compounds were then added to cells in 10-point dose response concentrations with the starting concentration being either 100 μM or 10 μM. The compounds were diluted from stock solutions in DMSO and the final DMSO concentration of the test compounds on cells was 0.1%. After 24 h of incubation with the test compounds the supernatant conditioned media was collected and the Aβ 40 levels were determined using a sandwich ELISA. The IC50 of the compound was calculated from the percent of control or percent inhibition of Aβ 40 as a function of the concentration of the test compound.
The sandwich ELISA to detect Aβ 40 was performed in 96 well microtiter plates, which were pre-treated with goat anti-rabbit IgG (Pierce). The capture and detecting antibody pair that were used to detect Aβ 40 from cell supernatants were affinity purified pAb40 (Biosource) and biotinylated 6E10 (Signet Labs Inc.), respectively. The optimal concentration for the pAb40 antibody was 3 μg/ml in Superblock/TBS (Pierce) that was supplemented with 0.05% Tween 20 (Sigma). Optimal concentration for the detection antibody 6E10-biotinylated was 0.5 μg/ml in Superblock/TBS (Pierce) that had been supplemented with 2% normal goat serum and 2% normal mouse serum.
Cellular supernatants were incubated with the capture antibody for 3 h at 4° C., followed by 3 wash steps in TBS-tween (0.05%). The detecting antibody incubation was for 2 h at 4° C., again followed by the wash steps as described previously. The final readout of the ELISA is Time-Resolved Fluorescence (counts per minute) using Delfia reagents Streptavidin-Europium and Enhancement solutions (Perkin Elmer) and the Victor 2 multilabel counter (Perkin Elmer).
Of the compounds tested, in-the cell-based assay, data for each of Examples 33-156 is provided in Table 1 and Examples 208-246 are provided in Table 4.
(An ELISA detects its analyte on a solid surface through an enzyme-linked reagent.)

A further test addresses BACE1 (Homo sapiens, UniProt P56817). In words: In vitro enzymatic BACE FRET (fluorescence resonance energy transfer) assay. The class given is biochemical. The procedure:
In Vitro Enzymatic BACE FRET (Fluorescence Resonance Energy Transfer) Assay (Enzyme Assay Data in Table 1)
The assay buffer used in this screen is 0.05 M acetate, pH 4.2, 10% DMSO final, 100 uM genapol (which is a nonionic detergent, below its Critical Micelle Concentration). […] The assay is effectively started by the addition of FRET substrate (50 nM) and the combination is incubated for one hour. The FRET assay is terminated with by addition of Tris buffer, which raises the pH to neutrality, and the fluorescence is determined. The FRET substrate is a peptide with commercially available fluorophore and quencher, on opposite sides of the BACE cleavage site. Proteolytic cleavage of the FRET substrate releases quenching of fluorescence (excitation […] and emission […]).

The structures appear in SMILES notation. A value given as a limit tells only on which side of the number the result lay.

Usually IC50 stands for the concentration that gives 50% inhibition.

BACE1, sequence (P56817 46-501, species assumed): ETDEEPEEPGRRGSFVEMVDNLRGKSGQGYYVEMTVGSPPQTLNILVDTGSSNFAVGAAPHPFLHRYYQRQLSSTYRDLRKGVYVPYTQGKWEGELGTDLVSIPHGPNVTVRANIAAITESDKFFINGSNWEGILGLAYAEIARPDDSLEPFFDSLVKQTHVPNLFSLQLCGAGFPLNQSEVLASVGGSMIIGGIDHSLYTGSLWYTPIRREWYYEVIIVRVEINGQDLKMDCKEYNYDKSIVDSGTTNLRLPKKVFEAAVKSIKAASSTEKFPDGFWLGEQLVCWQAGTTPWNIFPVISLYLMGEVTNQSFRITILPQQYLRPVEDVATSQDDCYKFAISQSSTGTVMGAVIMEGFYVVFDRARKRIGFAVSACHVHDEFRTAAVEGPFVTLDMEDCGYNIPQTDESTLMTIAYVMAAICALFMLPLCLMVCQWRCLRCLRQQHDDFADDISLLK

For the molecule `C=CC[C@H](NC(=O)c1ccc(OC)nc1)[C@H](O)CN[C@H]1CC2(CCC2)Oc2ncc(CC(C)(C)C)cc21` [Example 63, N-((1S)-1-((1R)-2-(((4′S)-6′-(2,2-dimethylpropyl)-3′,4′-dihydrospiro[cyclobutane-1,2′-pyrano[2,3-b]pyridin]-4′-yl)amino)-1-hydroxyethyl)-3-buten-1-yl)-6-(methyloxy)-3-pyridinecarboxamide], the concentration for half-maximal inhibition (IC50) in test [1] (Homo sapiens, HEK293, 24 h) amounted to 1400 nM; on BACE1, 215 nM.

`C=CC[C@H](NC(=O)[C@H]1CC1(F)F)[C@H](O)CN[C@H]1CC2(CCC2)Oc2ncc(CC(C)(C)C)cc21` [Example 139, (1R)-N-((1S)-1-((1R)-2-(((4′S)-6′-(2,2-dimethylpropyl)-3′,4′-dihydrospiro[cyclobutane-1,2′-pyrano[2,3-b]pyridin]-4′-yl)amino)-1-hydroxyethyl)-3-buten-1-yl)-2,2-difluorocyclopropanecarboxamide]: the IC50 came to 277 nM in test [1] (Homo sapiens, HEK293, 24 h) and 198 nM on BACE1.

On to `C=CC[C@H](NC(=O)COC)[C@H](O)CN[C@H]1CC2(CCC2)Oc2c1cc(CC(C)(C)C)nc2N1CCCC1` [Example 49, N-((1S)-1-((1R)-2-(((4′S)-6′-(2,2-dimethylpropyl)-8′-(1-pyrrolidinyl)-3′,4′-dihydrospiro[cyclobutane-1,2′-pyrano[2,3-c]pyridin]-4′-yl)amino)-1-hydroxyethyl)-3-buten-1-yl)-2-(methyloxy)acetamide], for which the half-maximal inhibitory concentration (IC50) was determined as 90 nM in test [1] (Homo sapiens, HEK293, 24 h) and 84 nM at BACE1.

Take `C=CC[C@H](NC(=O)COC)[C@H](O)CNC1CC2(CC(F)(F)C2)Oc2ncc(CC(C)(C)C)cc21` (stereo partly drawn) [Example 41, N-((1S)-1-((1R)-2-((6′-(2,2-dimethylpropyl)-3,3-difluoro-3′,4′-dihydrospiro[cyclobutane-1,2′-pyrano[2,3-b]pyridin]-4′-yl)amino)-1-hydroxyethyl)-3-buten-1-yl)-2-(methyloxy)acetamide]: the IC50 in test [1] (Homo sapiens, HEK293, 24 h) was 127 nM; on BACE1 it was 42 nM.

As for `C=CC[C@H](NC(C)=O)[C@H](O)CN[C@H]1C[C@@]2(CC[C@H]2O)Oc2ncc(CC(C)(C)C)cc21` [Example 50, N-((1S)-1-((1R)-2-(((1R,2R,4′S)-6′-(2,2-dimethylpropyl)-2-hydroxy-3′,4′-dihydrospiro[cyclobutane-1,2′-pyrano[2,3-b]pyridin]-4′-yl)amino)-1-hydroxyethyl)-3-buten-1-yl)acetamide], the IC50 in test [1] (Homo sapiens, HEK293, 24 h) is no less than 10000 nM; at BACE1, 4160 nM.

Consider `C=CCC(NC(C)=O)C(O)CNC1CC2(CC(O)C2)Oc2ccc(Br)cc21` [Example 118, N-((1S)-1-((1R)-2-(((2s,3′S,4S)-6-bromo-3′-hydroxy-3,4-dihydrospiro[chromene-2,1′-cyclobutan]-4-yl)amino)-1-hydroxyethyl)-3-buten-1-yl)acetamide], for which the values for the IC50 (in test [1]; on BACE1) were no less than 10000 nM and 6060 nM, respectively.

As for `C#CC[C@H](NC(=O)COC)[C@H](O)CN[C@H]1CC2(CCC2)Oc2ncc(CC(C)(C)C)cc21` [Example 85, N-((1S)-1-((1R)-2-(((4′S)-6′-(2,2-dimethylpropyl)-3′,4′-dihydrospiro[cyclobutane-1,2′-pyrano[2,3-b]pyridin]-4′-yl)amino)-1-hydroxyethyl)-3-butyn-1-yl)-2-(methyloxy)acetamide], the IC50 stood at 511 nM in test [1] (Homo sapiens, HEK293, 24 h) and 49 nM at BACE1.

`C=CC[C@H](NC(=O)c1ccc(F)cc1F)[C@H](O)CN[C@H]1CC2(CCC2)Oc2ncc(CC(C)(C)C)cc21` [Example 70, N-((1S)-1-((1R)-2-(((4′S)-6′-(2,2-dimethylpropyl)-3′,4′-dihydrospiro[cyclobutane-1,2′-pyrano[2,3-b]pyridin]-4′-yl)amino)-1-hydroxyethyl)-3-buten-1-yl)-2,4-difluorobenzamide]: the IC50 in test [1] (Homo sapiens, HEK293, 24 h) turned out to be 526 nM; at BACE1, 264 nM.

Regarding `C=CC[C@H](NC(=O)COC)[C@H](O)CN[C@H]1CC2(CCC2)Oc2ncc(CC(C)(F)F)cc21` [Example 121, N-((1S)-1-((1R)-2-(((4′S)-6′-(2,2-difluoropropyl)-3′,4′-dihydrospiro[cyclobutane-1,2′-pyrano[2,3-b]pyridin]-4′-yl)amino)-1-hydroxyethyl)-3-buten-1-yl)-2-(methyloxy)acetamide], the IC50 in test [1] (Homo sapiens, HEK293, 24 h) is 226 nM; on BACE1, 225 nM.

On to `C=CC[C@H](NC(=O)C(F)(F)F)[C@H](O)CN[C@H]1CC2(CCC2)Oc2ncc(CC(C)(C)C)cc21` [Example 94, N-((1S)-1-((1R)-2-(((4′S)-6′-(2,2-dimethylpropyl)-3′,4′-dihydrospiro[cyclobutane-1,2′-pyrano[2,3-b]pyridin]-4′-yl)amino)-1-hydroxyethyl)-3-buten-1-yl)-2,2,2-trifluoroacetamide], for which the IC50 came out at 154 nM in test [1] (Homo sapiens, HEK293, 24 h) and 73 nM on BACE1.

In the case of `C=CCC(NC(C)=O)C(O)CNC1CC2(CC(O)C2)Oc2ccc(Br)cc21` [Example 117, N-((1S)-1-((1R)-2-(((2r,3′R,4S)-6-bromo-3′-hydroxy-3,4-dihydrospiro[chromene-2,1′-cyclobutan]-4-yl)amino)-1-hydroxyethyl)-3-buten-1-yl)acetamide], the figures for the IC50 (in test [1]; at BACE1) were 1290 nM and 419 nM, respectively.

As for `C=CC[C@H](NC(=O)c1ccc(F)c(F)c1F)[C@H](O)CN[C@H]1CC2(CCC2)Oc2ncc(CC(C)(C)C)cc21` [Example 73, N-((1S)-1-((1R)-2-(((4′S)-6′-(2,2-dimethylpropyl)-3′,4′-dihydrospiro[cyclobutane-1,2′-pyrano[2,3-b]pyridin]-4′-yl)amino)-1-hydroxyethyl)-3-buten-1-yl)-2,3,4-trifluorobenzamide], the IC50 was determined as 2650 nM in test [1] (Homo sapiens, HEK293, 24 h) and 483 nM at BACE1.

As for `C=CC[C@H](NC(=O)c1cc(F)cc(F)c1)[C@H](O)CN[C@H]1CC2(CCC2)Oc2ncc(CC(C)(C)C)cc21` [Example 61, N-((1S)-1-((1R)-2-(((4′S)-6′-(2,2-dimethylpropyl)-3′,4′-dihydrospiro[cyclobutane-1,2′-pyrano[2,3-b]pyridin]-4′-yl)amino)-1-hydroxyethyl)-3-buten-1-yl)-3,5-difluorobenzamide], the concentration for half-maximal inhibition (IC50) in test [1] (Homo sapiens, HEK293, 24 h) stood at 29.1 nM; at BACE1, 5 nM.

For the molecule `C=CC[C@H](NC(=O)OCc1cncs1)[C@H](O)CN[C@H]1CC2(CCC2)Oc2ncc(CC(C)(C)C)cc21` [Example 105, 1,3-thiazol-5-ylmethyl ((1S)-1-((1R)-2-(((4′S)-6′-(2,2-dimethylpropyl)-3′,4′-dihydrospiro[cyclobutane-1,2′-pyrano[2,3-b]pyridin]-4′-yl)amino)-1-hydroxyethyl)-3-buten-1-yl)carbamate], the IC50 in test [1] (Homo sapiens, HEK293, 24 h) was found to be 1160 nM; at BACE1, 396 nM.

On to `C=CC[C@H](NC(=O)c1cncn1C)[C@H](O)CN[C@H]1CC2(CCC2)Oc2ncc(CC(C)(C)C)cc21` [Example 131, N-((1S)-1-((1R)-2-(((4′S)-6′-(2,2-dimethylpropyl)-3′,4′-dihydrospiro[cyclobutane-1,2′-pyrano[2,3-b]pyridin]-4′-yl)amino)-1-hydroxyethyl)-3-buten-1-yl)-1-methyl-1H-imidazole-5-carboxamide], for which the IC50 is 65 nM in test [1] (Homo sapiens, HEK293, 24 h) and 372 nM on BACE1.

On to `C=CC[C@H](NC(=O)c1cncnc1)[C@H](O)CN[C@H]1CC2(CCC2)Oc2ncc(CC(C)(C)C)cc21` [Example 68, N-((1S)-1-((1R)-2-(((4′S)-6′-(2,2-dimethylpropyl)-3′,4′-dihydrospiro[cyclobutane-1,2′-pyrano[2,3-b]pyridin]-4′-yl)amino)-1-hydroxyethyl)-3-buten-1-yl)-5-pyrimidinecarboxamide], for which the IC50 in test [1] (Homo sapiens, HEK293, 24 h) was 709 nM; at BACE1 it was 271 nM.

In the case of `C=CC[C@H](NC(=O)[C@@H]1CC1(F)F)[C@H](O)CN[C@H]1CC2(CCC2)Oc2ncc(CC(C)(C)C)cc21` [Example 140, (1S)-N-((1S)-1-((1R)-2-(((4′S)-6′-(2,2-dimethylpropyl)-3′,4′-dihydrospiro[cyclobutane-1,2′-pyrano[2,3-b]pyridin]-4′-yl)amino)-1-hydroxyethyl)-3-buten-1-yl)-2,2-difluorocyclopropanecarboxamide], the IC50 in test [1] (Homo sapiens, HEK293, 24 h) worked out at 331 nM; at BACE1, 382 nM.
